Experimental data reported in US20090047224A1, “Cosmetic Process for Preventing or Treating the Signs of Skin Ageing or the Orange-Peel Appearance” (L'OREAL, priority 2003, published 2009).
Where two headings read alike, the source gives them in different places.

What was measured:
[1] = system: bovine serum albumin; assay: Anti-glycation effect: inhibition of glycation of bovine serum albumin by D-ribose, measured by fluorescence; type: biochemical; conditions: for IC50: BSA + D-ribose 100 mM, 37° C., four weeks; for anti-glycation activity: compared with aminoguanidine
Experimental: A solution of bovine serum albumin at 5 or 10 mg/ml dissolved in phosphate-buffered saline is incubated at 37° C. for four weeks in the presence or absence of the test compounds at a concentration of between 20 and 160 μg/ml, and in the presence or absence of D-ribose at 100 mM.
After this incubation, dialysis of each sample is performed for 24 hours against MilliQ water.
The glycation of the BSA is evaluated by measuring the fluorescence of each sample at λex 320/λex 380 nm (which corresponds to the formation of the pentosidine glycation product) and at λex 370/λex 440 nm (which corresponds to AGEs).
The inhibition of glycation corresponds to a decrease in fluorescence compared with the glycated control (treated with sugar). The concentration of compound leading to a 50% inhibition of glycation, or IC50, is determined.
Aminoguanidine is used as positive control and tested at various concentrations of between 20 and 160 μg/ml.

[2] = system: supercoiled circular DNA (plasmid pBR322); assay: Antioxidant effect: DNA-protecting effect under simulated daily UV with ferric ions and riboflavin; type: biochemical; conditions: 30 minutes simulated daily UV
Experimental: The DNA-protecting effect of the compounds according to the invention was evaluated by comparison with vitamin C and N-acetylcysteine, which are two well-known antioxidants.
In this test, supercoiled circular DNA (plasmid pBR322, Roche) is placed in solution in the presence of 10 mM phosphate buffer (pH=7) and ferric ions (FeCl3, Sigma) at a concentration of 1 μM and in the presence of riboflavin (Sigma) at a concentration of 0.5 μM. The iron amplifies, via the Fenton reaction, the photo-oxidative impact on the DNA. Its presence also makes it possible to evaluate the potential chelating effect of the N-hydroxy imides according to the invention.
The samples are exposed for 30 minutes to simulated daily UV (attenuated UVB+total UVA) obtained using the Oriel solar simulator equipped with a suitable optical filter and a dichroic mirror. The corresponding spectrum is illustrated in FIG. 3.
The DNA is then subjected to electrophoresis on 1% agarose gel to separate the supercoiled forms, relaxed due to induction of breaks and linearized. After treatment in a gel with the fluorescent intercalating agent ethidium bromide, these three forms may be quantified by densitometry of the agarose gel under UV.

[3] = Release of ammonia on heating; type: physicochemical; conditions: in contrast with aminoguanidine
[4] = fluorescence corresponding to AGEs, read-out: λex 370/λex 440 nm IC50
[5] = fluorescence corresponding to formation of the pentosidine glycation product, read-out: λex 320/λex 380 nm IC50

SMILES	IC50 [1, 4]	IC50 [1, 5]	also measured
O=C1c2ccccc2C(=O)N1O [Compound 4, N-hydroxyphthalimide]	250 µM	200 µM	
CC(=O)N[C@@H](CS)C(=O)O [N-Acetylcysteine, reference compound]			Score (level of DNA protection) ([2]; Concentration 1 mM): ++ (The score (++) means that the active agent reduces the photodegradation of the DNA by at least 50%)
O=C1CCC(=O)N1O [Compound 1, N-hydroxysuccinimide]			releasing ammonia on heating [3]: not releasing ammonia on heating; anti-glycation activity [1]: more moderate than aminoguanidine
O=C1c2cccc3cccc(c23)C(=O)N1O [Compound 5, N,N-(1,8-naphthaloyl)hydroxylamine]	45 µM	0.8 µM	Score (level of DNA protection) ([2]; Concentration 0.01 mM): + (The score (+) means that the active agent reduces the photodegradation of the DNA by at least 20%)
O=C1C=CC(=O)N1O [Compound 2, N-hydroxymaleimide]	600 µM	800 µM	
O=C1C=C(c2ccccc2)C(=O)N1O [Compound 3, N-hydroxy-2-phenylmaleimide]	40 µM	30 µM	Score (level of DNA protection) ([2]; Concentration 0.1 mM): ++ (The score (++) means that the active agent reduces the photodegradation of the DNA by at least 50%)
O=C1O[C@H]([C@@H](O)CO)C(O)=C1O [Vitamin C, reference compound]			Score (level of DNA protection) ([2]; Concentration 1 mM): + (The score (+) means that the active agent reduces the photodegradation of the DNA by at least 20%)
N=C(N)NN [Aminoguanidine, reference compound]	700 µM	200 µM	
O=C1CCCC(=O)N1O [Compound 6, N-hydroxy-piperidine-2,6-dione]			anti-glycation activity [1]: more moderate than aminoguanidine
